This is an account of results in paper PMC12486805, “Preclinical evaluation of tridecaptin M: in vitro and in vivo efficacy against colistin-resistant Gram-negative bacterial pathogens and pharmacokinetics” (Antimicrobial Agents and Chemotherapy, 2025).

Data set [1] in a line: in vitro. Conditions: mouse, liver microsomes, pH 7.4. For orientation: Liver microsomes are a subcellular fraction often used to study metabolism.
Method: (§4) For without cofactors, 20 µL of PBS was added instead of pre-incubated cofactors. […] At each specified time, a 100 µL sample was taken, processed through a sample extraction procedure, and submitted for LC-MS/MS analysis ([35]). Half-life (t1/2) of test/control items was determined using the following equation
(§5) where, elimination rate constant (k) = −(slope of linear regression curve).
Data set [2] in a line: in vitro. Conditions: human, liver microsomes, pH 7.4.
Method: as §4, §5
Data set [3] is described as follows: in vitro. The settings on record: rat, liver microsomes, pH 7.4.
Method: as §4, §5
In data set [4] the target is T1, CYP1A2 (Homo sapiens, UniProt P05177).
T1 sequence (P05177 1-516): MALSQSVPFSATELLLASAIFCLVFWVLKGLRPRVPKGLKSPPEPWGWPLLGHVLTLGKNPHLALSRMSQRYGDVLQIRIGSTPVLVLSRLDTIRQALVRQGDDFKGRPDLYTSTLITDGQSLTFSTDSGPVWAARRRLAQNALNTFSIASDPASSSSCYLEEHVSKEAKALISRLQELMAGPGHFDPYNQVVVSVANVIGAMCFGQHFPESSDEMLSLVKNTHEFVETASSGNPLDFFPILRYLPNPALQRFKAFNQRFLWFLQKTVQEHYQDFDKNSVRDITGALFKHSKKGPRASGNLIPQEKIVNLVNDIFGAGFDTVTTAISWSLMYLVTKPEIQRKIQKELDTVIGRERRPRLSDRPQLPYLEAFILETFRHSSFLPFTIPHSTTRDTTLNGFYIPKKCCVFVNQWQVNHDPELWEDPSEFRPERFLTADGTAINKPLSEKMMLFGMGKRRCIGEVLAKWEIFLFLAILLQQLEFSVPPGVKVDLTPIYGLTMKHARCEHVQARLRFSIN
The experiment in a line: in vitro. In kind it is biochemical. Conditions: human, % inhibition CYP 1A2. On the procedure:
(§1) The CYP inhibition assay was performed for test/control inhibitor items in duplicates using a 96-well fluorescence plate. An example of the preparation of CYP inhibition is given below in Table 8.
(§2) The plate with CYP master premix with test/control was incubated to allow the test/control samples to interact with CYP enzyme for 10 ± 1 min at 25°C under shaking conditions (400 rpm) using Thermomixer. The assay was initiated by adding 10 µL of a substrate and NADP^+ mixture to all wells, including a vehicle control and an assay blank. […] After incubation, the reaction was quenched by adding 50 µL of stop reagent (0.5 M Tris base) to each well.

Data set [5] deals with CYP2D6 (Homo sapiens, UniProt P10635). The experiment in a line: CYP inhibition assay, recombinant isoform, fluorescence. In kind it is biochemical. Conditions: human, recombinant CYP2D6. On the procedure:
as §1, §2

The target of data set [6] is CYP2C9 (Homo sapiens, UniProt P11712). The description is as above. In kind it is biochemical. Conditions: human, read-out: % inhibition CYP 2C9. As for the experimental part: as §1
The plate with CYP master premix with test/control was incubated to allow the test/control samples to interact with CYP enzyme for 10 ± 1 min at 25°C under shaking conditions (400 rpm) using Thermomixer. The assay was initiated by adding 10 µL of a substrate and NADP^+ mixture to all wells, including a vehicle control and an assay blank. The plate was then incubated at 25°C for 25 min with shaking at 400 rpm using a thermomixer. After incubation, the reaction was quenched by adding 50 µL of stop reagent (0.5 M Tris base) to each well. Fluorescence was measured using a microplate reader at excitation/emission wavelengths of 415/460 nm, respectively ([37]).

Data set [7] deals with K. pneumoniae. In kind it is cell-based, Klebsiella pneumoniae. On the procedure:
(§3) The MIC for all isolates was determined using the broth microdilution method. This involved preparing CA-MHB medium and serially diluting antibiotic solutions by a factor of two. The test organism was adjusted to a concentration of ≈5 × 10^5 CFU/mL. In a sterile 96-well microtiter plate, 100 µL of CA-MHB, along with 100 µL of each antibiotic, was added, and serial dilutions were made. A 100 µL suspension of the organism was added to each well and mixed, resulting in a total reaction volume of 200 µL per well. The plate was then incubated at 37°C for 16–18 h. The MIC was identified as the lowest concentration of antibiotic that prevented any visible growth of the organism ([16]).

Data set [8] is described as follows: Intravenous acute toxicity in mice. In kind it is in vivo, Balb/c mice. The settings on record: 18 mg/kg i.v. On the procedure: In total, 8–10 week old female Balb/c mice (n = 3) were administered tridecaptin M starting at 15 mg/kg, 25 mg/kg, 50 mg/kg, and 100 mg/kg. […] In this study, we administered 18 mg/kg of colistin to mice intravenously. […] Later, in the second set, intermediate concentrations of 20 mg/kg, 25 mg/kg, 30 mg/kg, 35 mg/kg, and 40 mg/kg doses were also administered to n = 4 mice. In these groups, blood was collected at 24 h post administration or immediately after visible movement stopped (40 mg/kg group), serum was separated and pooled together for each group n = 4, and biochemical serum tests were conducted.

For data set [9] the following is noted: cited from earlier work.
Data set [10] has as its system K. pneumoniae ATCC 700603. The experiment in a line: Peritonitis infection model for intravenous efficacy in Balb/c mice. In kind it is in vivo, Klebsiella pneumoniae. The settings on record: single i.v. dose 5 mg/kg, 4 h post-infection. On the procedure: Balb/c mice (n = 6), 8-10 weeks old, are rendered neutropenic with cyclophosphamide as in previous experiments. A bacterial load of K. pneumoniae ATCC 700603 standard strain corresponding to ≈10^7 CFU/mL was used, and 100 μL was administered intraperitoneally to cause multi-organ infection conditions. At 4 h, the pre-treatment group was euthanized, and the right kidney of each mouse was harvested, homogenized, serially diluted, and spotted on MHA plates to determine bacterial CFU count per kidney. Simultaneously, at 4 h, the remaining groups were administered 5 mg/kg colistin, 5 mg/kg tridecaptin M, 10 mg/kg tridecaptin M, and vehicle control (PBS); 24 h after treatment, the remaining groups were euthanized, and the CFU count in the right kidney was determined the same as the 4 h pre-treatment group.

The subject of data set [11] is E. coli. In kind it is cell-based, Escherichia coli. As for the experimental part: as §3
The subject of data set [12] is K. pneumoniae AH-16. The experiment in a line: Mucin peritonitis survival model in BALB/c mice. In kind it is in vivo, Klebsiella pneumoniae. The settings on record: 5 mg/kg s.c., three doses at 2, 12, 24 h post-infection. On the procedure: The survival study was performed by following a method described earlier, with some modifications; 8–10 week old, female BALB/c mice, 10 mice in each group, were infected with 100μL (OD600nm = 1) of K. pneumoniae AH-16 bacterial suspension prepared in porcine mucin 5% via intraperitoneal injection. Mice were injected subcutaneously with tridecaptin M (10 mg/kg) and colistin (5 mg/kg). The treatment was given in three doses at 2 h, 12 h, and 24 h post-infection to ensure a 15 mg/kg/day maximum dose limit for colistin. The survival or death of mice was monitored and recorded every 12 h for 7 days ([41]).

Sequence of CYP2D6 (P10635 whole entry, canonical isoform): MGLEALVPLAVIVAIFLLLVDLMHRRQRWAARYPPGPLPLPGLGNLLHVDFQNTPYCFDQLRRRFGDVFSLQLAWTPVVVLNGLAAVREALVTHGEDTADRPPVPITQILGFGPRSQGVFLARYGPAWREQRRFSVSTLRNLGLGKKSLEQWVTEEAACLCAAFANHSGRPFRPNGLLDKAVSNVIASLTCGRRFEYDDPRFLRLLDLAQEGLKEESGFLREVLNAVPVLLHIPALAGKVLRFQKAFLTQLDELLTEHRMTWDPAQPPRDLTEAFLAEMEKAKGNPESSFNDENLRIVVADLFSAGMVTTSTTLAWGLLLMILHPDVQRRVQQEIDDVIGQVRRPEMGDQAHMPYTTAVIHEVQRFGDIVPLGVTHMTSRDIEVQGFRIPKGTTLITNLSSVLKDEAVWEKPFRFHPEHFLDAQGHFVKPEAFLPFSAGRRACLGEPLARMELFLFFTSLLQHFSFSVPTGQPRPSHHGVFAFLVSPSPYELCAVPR
Sequence of CYP2C9 (P11712 whole entry): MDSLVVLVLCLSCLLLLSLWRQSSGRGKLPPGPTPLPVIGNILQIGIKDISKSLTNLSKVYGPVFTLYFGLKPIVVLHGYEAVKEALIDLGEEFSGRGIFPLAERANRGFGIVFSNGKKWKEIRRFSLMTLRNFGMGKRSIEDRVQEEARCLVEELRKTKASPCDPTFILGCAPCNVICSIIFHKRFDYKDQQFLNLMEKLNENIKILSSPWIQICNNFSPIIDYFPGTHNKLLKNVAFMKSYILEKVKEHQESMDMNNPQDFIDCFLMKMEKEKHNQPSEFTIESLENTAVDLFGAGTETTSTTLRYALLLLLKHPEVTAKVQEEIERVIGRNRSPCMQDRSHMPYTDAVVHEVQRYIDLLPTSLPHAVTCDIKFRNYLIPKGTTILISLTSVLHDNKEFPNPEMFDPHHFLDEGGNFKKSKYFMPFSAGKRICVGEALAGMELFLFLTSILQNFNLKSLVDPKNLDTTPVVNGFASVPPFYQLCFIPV

Consider `O=C(O)Cc1ccccc1Nc1c(Cl)cccc1Cl` [Diclofenac, reference compound], for which, in [1], the half-life amounted to 1.54 h, the intrinsic clearance (microsomal CLint) came out at 15 µL/min/mg, the fraction remaining at 0.5 h came out at 77.7% and the amount remaining at 1 h was determined as 58.7%. Also, in data set [1], the amount remaining at 2 h was found to be 40.1%. For the same molecule, in data set [2], the half-life amounted to 0.327 h, the intrinsic clearance (microsomal CLint) worked out at 70.6 µL/min/mg, the amount remaining at 0.25 h was found to be 53.2% and the amount remaining at 0.5 h amounted to 36.5%. In addition, in [2], the amount remaining at 1 h was found to be 11.6% and the share remaining at 2 h stood at 8.3%. In data set [3], the half-life was over 2 h, the microsomal CLint is under 11.6 µL/min/mg, the share remaining at 0.25 h came out at 102% and the fraction remaining at 0.5 h came to 88.6%. Also, in [3], the amount remaining at 1 h came out at 67.2% and the amount remaining at 2 h turned out to be 64.5%.

In the case of `Cc1nc2c([nH]1)c(=O)n(C)c(=O)n2Cc1ccco1` [Furafylline, reference compound], in [4], the inhibition at 25 min, 0.01 µM is under 0%; the inhibition at 25 min, 0.03 µM was under 0%; the inhibition at 25 min, 0.1 µM was under 0%; the inhibition at 25 min, 0.3 µM turned out to be 9.3%. In data set [4], this molecule showed an inhibition at 25 min, 1 µM of 45.3%; an inhibition at 25 min, 3 µM of 67.7%; an inhibition at 25 min, 10 µM of 90.8%.

On to `C=C[C@H]1C[N@@]2CC[C@H]1C[C@@H]2[C@@H](O)c1ccnc2ccc(OC)cc12` [Quinidine, reference compound], for which the inhibition at 25 min, 0.003 µM in [5] is 52.4%. Also, in data set [5] (0.0003 µM, read-out: % inhibition CYP 2D6), the inhibition at 25 min, 0.0003 µM is under 0%. In addition, the inhibition at 25 min, 0.001 µM in data set [5] (0.001 µM, read-out: % inhibition CYP 2D6) amounted to 14%. Also, the inhibition at 25 min, 0.01 µM in [5] (0.01 µM, read-out: % inhibition CYP 2D6) is 88.6%. In addition, in data set [5] (0.03 µM, read-out: % inhibition CYP 2D6), the inhibition at 25 min, 0.03 µM is 92.6%. In addition, the inhibition at 25 min, 0.1 µM in data set [5] (0.1 µM, read-out: % inhibition CYP 2D6) was determined as 93.4%. Also, the inhibition at 25 min, 0.3 µM in [5] (0.3 µM, read-out: % inhibition CYP 2D6) was 92.5%. Further, the inhibition at 25 min, 1 µM in data set [5] (1 µM, read-out: % inhibition CYP 2D6) was determined as 95.7%.

For `Nc1ccc(S(=O)(=O)Nc2ccnn2-c2ccccc2)cc1` [Sulfaphenazole, reference compound], the inhibition at 25 min, 0.001 µM in [6] (0.001 µM) is under 0%. For the same molecule, in data set [6] (0.003 µM), the inhibition at 25 min, 0.003 µM came out at 3.42%. Besides, the inhibition at 25 min, 0.01 µM in data set [6] (0.01 µM) amounted to 11.3%. Further, the inhibition at 25 min, 0.03 µM in [6] (0.03 µM) was found to be 27.2%. Also, the inhibition at 25 min, 0.1 µM in data set [6] (0.1 µM) was 34.7%. The inhibition at 25 min, 0.3 µM in data set [6] (0.3 µM) worked out at 45.2%. Further, the inhibition at 25 min, 1 µM in data set [6] (1 µM) stood at 53.5%. Also, the inhibition at 25 min, 3 µM in data set [6] (3 µM) came out at 57.9%.

Consider colistin [reference compound], for which the values for the MIC range in data set [7] (Col-S (colistin sensitive) clinical isolates (72)) and in [11] (Col-S clinical isolates (52)) were 0.25 to 2 µg/mL and 0.25 to 1 µg/mL, respectively. Besides, the MIC in data set [7] (Std. QC strain ATCC 700603) is 0.5 µg/mL; in data set [11] (Std. QC strain ATCC 25922), 0.25 µg/mL. Moreover, the “outcome of i.v. administration” value in data set [8] was “immediately lethal”. Besides, the “subcutaneous dose known to be lethal to mice” value in [9] is “exceeding 36 mg/kg”. In addition, the “mortality in acute toxicity study” value in data set [9] (colistin group of the same study) is reported as “all mice in the colistin group died within 24 h”. For the same molecule, the “efficacy (CFU/kidney) compared with tridecaptin M” value in data set [10] was “superior performance”. In addition, in data set [12], the “survival at the end of 7 days” value is 40%.

One may read the half-life as the time needed for the level to fall by half in the phase considered. Read a low half-life as fast loss. A word on the microsomal CLint: it is the rate of metabolic loss divided by the concentration. A lower microsomal CLint goes with slow turnover. What is called inhibition is the relative decrease from the control value, in per cent. In general, MIC refers to the lowest concentration that inhibits growth of the organism. Read a high MIC as a need for much substance.
